Where two headings read alike, the source gives them in different places. *1 amine or outer side, *2 acyl side, *3 side chain or, on linkers, in order; H or OH if unused. Where a SMILES comes first, the peptide text is derived from it. Bridges are numbered along the chain shown (N, C = ends). Side-chain parts run from the residue outwards. [ ]: non-standard residue; d: D form. The star is where a group is joined. X2 = O=C(O)CN1CCN(CC(=O)O)CCN(CC(=O)N[C@@H](CCC(=O)NC[C@H](O)[C@@H](O)[C@H](O)[C@H](O)CO)C(=O)*)CCN(CC(=O)O)CC1; X3 = O=C(O)CN1CCN(CC(=O)O)CCN(CC(=O)NCCCOCCOCCOCCCN*)CCN(CC(=O)O)CC1; NH(1-deoxy-D-glucityl) = OC[C@@H](O)[C@@H](O)[C@H](O)[C@@H](O)CN*; Pro(trans-4-NH2) = O=C([C@@H]1C[C@@H](N[*:3])CN1[*:1])[*:2]; DOTA = O=C(O)CN1CCN(CC(=O)O)CCN(CC(=O)*)CCN(CC(=O)O)CC1; Trp(5-Cl) = N[C@@H](Cc1c[nH]c2ccc(Cl)cc12)C(=O)O; Pyridine(2,6-diCH2) = c1cc(C[*:1])nc(C[*:2])c1; X10 = O=C(CN(CC(=O)NC(CO)CO)CC(=O)*)NC(CO)CO; Pro(4R-NH2) = N[C@H]1CN[C@H](C(=O)O)C1; Glutaryl = O=C(CCCC(=O)[*:2])[*:1]; X7 = c1cc(CSCCN[*:2])cc(C[*:1])c1; Hyp = O=C(O)[C@@H]1C[C@@H](O)CN1; X1 = O=C(CN1CCC(N[*:1])CC1)[*:2]; hArg = N=C(N)NCCCC[C@H](N)C(=O)O; Suc = O=C(CCC(=O)[*:2])[*:1]; hSer = N[C@@H](CCO)C(=O)O; dDap = NC[C@@H](N)C(=O)O; Api = NC1(C(=O)O)CCNCC1; Thp = NC1(C(=O)O)CCOCC1
Tests used:
[1] = target: T1, human GIP receptor (bioGIPR) (Homo sapiens, UniProt P48546); test: Surface plasmon resonance (SPR) based binding assay; details: Single Cycle Kinetic mode, 25° C.; for t1/2 Category: SPR dissociation half-life; for Kd: SPR, 1:1 Langmuir binding model, read-out: pKD Category (converted)
T1 construct: Biotinylate extracellular of the human GIP receptor (bioGIPR, Proteros biostructures GmbH, lot #02/2b); purchased Proteros biostructures GmbH lot #02/2b
T1 sequence (P48546 22-138 limits assumed): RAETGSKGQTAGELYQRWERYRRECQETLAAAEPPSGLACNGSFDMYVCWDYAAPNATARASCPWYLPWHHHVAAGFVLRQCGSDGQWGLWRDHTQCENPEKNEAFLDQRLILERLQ
In short: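 Binding was measured at 25 °C by single-cycle kinetics against a reference flow cell, with blank-run and drift correction, after capturing biotinylated GIPR extracellular domain to ~3500 RU. Running buffer: HBST, 0.1% DMSO. A 1:1 Langmuir model gave kinetic rates, KD, t1/2 and pKD.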

[2] = target: T2, GIPR (CHO-K1-hGIPR cells) (Homo sapiens, UniProt P48546); test: FACS binding assay; details: read-out: pIC50 Category (converted)
T2 construct: host or cells: CHO-K1
T2 sequence (P48546 22-466): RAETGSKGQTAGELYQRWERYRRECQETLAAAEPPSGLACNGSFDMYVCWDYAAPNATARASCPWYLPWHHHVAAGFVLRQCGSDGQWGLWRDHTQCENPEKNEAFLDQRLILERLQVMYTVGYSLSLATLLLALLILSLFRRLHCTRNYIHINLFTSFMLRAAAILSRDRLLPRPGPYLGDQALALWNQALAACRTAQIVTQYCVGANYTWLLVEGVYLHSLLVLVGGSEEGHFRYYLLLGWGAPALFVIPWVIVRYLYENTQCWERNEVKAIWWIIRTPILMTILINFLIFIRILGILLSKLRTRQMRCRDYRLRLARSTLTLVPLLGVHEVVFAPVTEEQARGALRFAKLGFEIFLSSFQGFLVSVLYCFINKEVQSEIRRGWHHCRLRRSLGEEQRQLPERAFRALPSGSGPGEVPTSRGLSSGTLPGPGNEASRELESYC
In short: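 Read-out: flow cytometric median fluorescence intensity, APC/Cy5 channel, plotted vs peptide conc.; 4PL fit → EC50/pEC50 or IC50/pIC50. Cells: CHO-K1-hGIPR, Accutase-detached, 500.000/mL in PBS + 1% FCS. Detection: APC-streptavidin 1 μg/mL, 30 min, on ice.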

[3] = competition with 20 nM GIP-057, 4° C., 1 hour
[4] = competition with 20 nM GIP-057, 4° C. for 1 hour

| SMILES | t1/2 Category [1] | Kd [1] | IC50 [2, 3] | IC50 [2, 4] |
| --- | --- | --- | --- | --- |
| CC[C@H](C)[C@@H]1NC(=O)[C@H](CC(C)C)NC(=O)C2(CCN(C(=O)[C@H](CCC(=O)NC[C@H](O)[C@@H](O)[C@H](O)[C@H](O)CO)NC(=O)CN3CCN(CC(=O)O)CCN(CC(=O)O)CCN(CC(=O)O)CC3)CC2)NC(=O)[C@@H](NC(=O)[C@@H](CC(C)C)NC(=O)[C@H](CCC(=O)O)NC(=O)[C@@H]2C[C@@H](NC(=O)CCCC(=O)NC[C@H](O)[C@@H](O)[C@H](O)[C@H](O)CO)CN2C(=O)[C@H](Cc2c[nH]c3ccc(Cl)cc23)NC(=O)[C@H](Cc2c[nH]c3ccccc23)NC(=O)[C@H](CC(=O)O)NC(=O)CN2CCC(NC(=O)CCCC(=O)NC[C@H](O)[C@@H](O)[C@H](O)[C@H](O)CO)CC2)CSCc2cccc(n2)CSC[C@@H](C(=O)NC2CCN(CC(=O)N[C@H](CCC(=O)NC[C@H](O)[C@@H](O)[C@H](O)[C@H](O)CO)C(N)=O)CC2)NC1=O [GIP-007, AGLU-Glutar-APAc-Asp-Trp-5Clw-Tap(AGLU-Glutar)-Glu-leu-[Cys(2Lut)-Apc(DOTA-glu(AGLU))-Leu-Ile-Cys]-APAc-glu(AGLU)-NH2] ({NH(1-deoxy-D-glucityl)-Glutaryl}-[X1]DW[Trp(5-Cl)][Pro(trans-4-NH2)]([Glutaryl-NH(1-deoxy-D-glucityl)])E[dL]C[Api](X2)LIC[X1][dE](NH(1-deoxy-D-glucityl))-NH2; linker 8-12 via Pyridine(2,6-diCH2)) | A (t1/2 values>15 min) | < 1 nM | 10 to 79.4 nM |  |
| CC[C@H](C)[C@@H]1NC(=O)[C@H](CC(C)C)NC(=O)C2(CCOCC2)NC(=O)[C@@H](NC(=O)[C@@H](CC(C)C)NC(=O)[C@H](CCC(=O)O)NC(=O)[C@@H]2C[C@@H](O)CN2C(=O)[C@H](Cc2c[nH]c3ccc(Cl)cc23)NC(=O)[C@H](Cc2c[nH]c3ccccc23)NC(=O)[C@H](CO)NC(C)=O)CSCc2cccc(n2)CSC[C@@H](C(N)=O)NC1=O [GIP-188, Ac-Ser-Trp-5Clw-Hyp-Glu-leu-[Cys(2Lut)-Thp-Leu-Ile-Cys]-NH2] (Ac-SW[Trp(5-Cl)][Hyp]E[dL]C[Thp]LIC-NH2; linker 7-11 via Pyridine(2,6-diCH2)) | A (t1/2 values>15 min) | < 1 nM | < 10 nM |  |
| CC[C@H](C)[C@@H]1NC(=O)[C@H](CC(C)C)NC(=O)C2(CCN(C(=O)CN3CCN(CC(=O)O)CCN(CC(=O)O)CCN(CC(=O)O)CC3)CC2)NC(=O)[C@@H](NC(=O)[C@@H](CC(C)C)NC(=O)[C@H](CCC(=O)O)NC(=O)[C@@H]2C[C@@H](N)CN2C(=O)[C@H](Cc2c[nH]c3ccc(Cl)cc23)NC(=O)[C@H](Cc2c[nH]c3ccccc23)NC(=O)[C@H](CC(=O)O)NC(=O)CN(CC(=O)NC(CO)CO)CC(=O)NC(CO)CO)CSCc2cccc(n2)CSC[C@@H](C(=O)NC2CCN(CC(=O)N[C@H](CNC(=O)CN(CC(=O)NC(CO)CO)CC(=O)NC(CO)CO)C(N)=O)CC2)NC1=O [GIP-373, NTASEROL-Asp-Trp-5Clw-Tap-Glu-leu-[Cys(2Lut)-Apc(DOTA)-Leu-Ile-Cys]-APAc-dap(NTASEROL)-NH2] (X10-DW[Trp(5-Cl)][Pro(4R-NH2)]E[dL]C[Api](DOTA)LIC[X1][dDap](X10)-NH2; linker 7-11 via Pyridine(2,6-diCH2)) | A (t1/2 values>15 min) | < 1 nM |  | < 10 nM |
| CC[C@H](C)[C@@H]1NC(=O)[C@H](CC(C)C)NC(=O)C2(CCOCC2)NC(=O)[C@@H](NC(=O)[C@@H](CC(C)C)NC(=O)[C@H](CCC(=O)O)NC(=O)[C@@H]2C[C@@H](O)CN2C(=O)[C@H](Cc2c[nH]c3ccc(Cl)cc23)NC(=O)[C@H](Cc2c[nH]c3ccccc23)NC(=O)CCC(=O)O)CSCc2cccc(n2)CSC[C@@H](C(=O)NC2CCN(CC(=O)N[C@@H](CCCCNC(=O)CN3CCN(CC(=O)O)CCN(CC(=O)O)CCN(CC(=O)O)CC3)C(N)=O)CC2)NC1=O [GIP-109, HO-Succinyl-Trp-5Clw-Hyp-Glu-leu-[Cys(2Lut)-Thp-Leu-Ile-Cys]-APAc-Lys(DOTA)-NH2] (Suc-W[Trp(5-Cl)][Hyp]E[dL]C[Thp]LIC[X1]K(DOTA)-NH2; linker 6-10 via Pyridine(2,6-diCH2)) | A (t1/2 values>15 min) | < 1 nM | < 10 nM |  |
| CC[C@H](C)[C@@H]1NC(=O)[C@H](CC(C)C)NC(=O)C2(CCN(C(C)=O)CC2)NC(=O)[C@@H](NC(=O)[C@@H](CC(C)C)NC(=O)[C@H](CCC(=O)O)NC(=O)[C@@H]2CCCN2C(=O)[C@H](Cc2c[nH]c3ccc(Cl)cc23)NC(=O)[C@H](Cc2c[nH]c3ccccc23)NC(=O)[C@H](CC(=O)O)NC(=O)CCC(=O)NCCCOCCOCCOCCCNC(=O)CN2CCN(CC(=O)O)CCN(CC(=O)O)CCN(CC(=O)O)CC2)CSCc2cccc(c2)CSCCNC1=O [GIP-097, DOTA-Ttds-Asp-Trp-5Clw-Pro-Glu-leu-[Cys(3MeBn)-Apc(Ac)-Leu-Ile-AET]] ({X3-Suc}-DW[Trp(5-Cl)]PE[dL]C[Api](Ac)LI; linker 7-C via X7) | A (t1/2 values>15 min) | < 1 nM | < 10 nM |  |
| CC[C@H](C)[C@@H]1NC(=O)[C@H](CC(C)C)NC(=O)C2(CCOCC2)NC(=O)[C@@H](NC(=O)[C@@H](CC(C)C)NC(=O)[C@H](CCCCNC(=N)N)NC(=O)[C@@H]2C[C@@H](O)CN2C(=O)[C@H](Cc2c[nH]c3ccc(Cl)cc23)NC(=O)[C@H](Cc2c[nH]c3ccccc23)NC(=O)[C@H](CC(=O)O)NC(C)=O)CSCc2cccc(n2)CSC[C@@H](C(N)=O)NC1=O [GIP-395, Ac-Asp-Trp-5Clw-Hyp-Har-leu-[Cys(2Lut)-Thp-Leu-Ile-Cys]-NH2] (Ac-DW[Trp(5-Cl)][Hyp][hArg][dL]C[Thp]LIC-NH2; linker 7-11 via Pyridine(2,6-diCH2)) | A (t1/2 values>15 min) | 1 to 7.94 nM |  | 10 to 79.4 nM |
| CC[C@H](C)[C@@H]1NC(=O)[C@H](CC(C)C)NC(=O)C2(CCN(C(=O)CN3CCN(CC(=O)O)CCN(CC(=O)O)CCN(CC(=O)O)CC3)CC2)NC(=O)[C@@H](NC(=O)[C@@H](CC(C)C)NC(=O)[C@H](CCO)NC(=O)[C@@H]2C[C@@H](N)CN2C(=O)[C@H](Cc2c[nH]c3ccc(Cl)cc23)NC(=O)[C@H](Cc2c[nH]c3ccccc23)NC(=O)[C@H](CO)NC(=O)CN2CCC(NC(=O)CCCC(=O)NC[C@H](O)[C@@H](O)[C@H](O)[C@H](O)CO)CC2)CSCc2cccc(n2)CSC[C@@H](C(=O)NC2CCN(CC(=O)N[C@H](CCC(=O)NC[C@H](O)[C@@H](O)[C@H](O)[C@H](O)CO)C(N)=O)CC2)NC1=O [GIP-048, AGLU-Glutar-APAc-Ser-Trp-5Clw-Tap-Hse-leu-[Cys(2Lut)-Apc(DOTA)-Leu-Ile-Cys]-APAc-glu(AGLU)-NH2] ({NH(1-deoxy-D-glucityl)-Glutaryl}-[X1]SW[Trp(5-Cl)][Pro(4R-NH2)][hSer][dL]C[Api](DOTA)LIC[X1][dE](NH(1-deoxy-D-glucityl))-NH2; linker 8-12 via Pyridine(2,6-diCH2)) | D (t1/2<2.0 min) | 1 to 7.94 nM | 10 to 79.4 nM |  |
| CC[C@H](C)[C@@H]1NC(=O)[C@H](CC(C)C)NC(=O)C2(CCOCC2)NC(=O)[C@@H](NC(=O)[C@@H](CC(C)C)NC(=O)[C@H](CCC(=O)O)NC(=O)[C@@H]2C[C@@H](O)CN2C(=O)[C@H](Cc2c[nH]c3ccc(Cl)cc23)NC(=O)[C@H](Cc2c[nH]c3ccccc23)NC(=O)[C@H](CC(=O)O)NC(=O)CN2CCC(NC(=O)CN3CCN(CC(=O)O)CCN(CC(=O)O)CCN(CC(=O)O)CC3)CC2)CNCc2cccc(c2)CSCCNC1=O [GIP-107, DOTA-APAc-Asp-Trp-5Clw-Hyp-Glu-leu-[Dap(3MeBn)-Thp-Leu-Ile-AET]] | A (t1/2 values>15 min) | < 1 nM | < 10 nM |  |
| CC[C@H](C)[C@@H]1NC(=O)[C@H](CC(C)C)NC(=O)C2(CCOCC2)NC(=O)[C@@H](NC(=O)[C@@H](CC(C)C)NC(=O)[C@H](CCCCN)NC(=O)[C@@H]2C[C@@H](O)CN2C(=O)[C@H](Cc2c[nH]c3ccc(Cl)cc23)NC(=O)[C@H](Cc2c[nH]c3ccccc23)NC(=O)[C@H](CC(=O)O)NC(C)=O)CSCc2cccc(n2)CSC[C@@H](C(N)=O)NC1=O [GIP-375, Ac-Asp-Trp-5Clw-Hyp-Lys-leu-[Cys(2Lut)-Thp-Leu-Ile-Cys]-NH2] (Ac-DW[Trp(5-Cl)][Hyp]K[dL]C[Thp]LIC-NH2; linker 7-11 via Pyridine(2,6-diCH2)) | A (t1/2 values>15 min) | 1 to 7.94 nM |  | < 10 nM |

From patent publication US20250296971A1, “GASTRIC INHIBITORY PEPTIDE RECEPTOR LIGANDS” (priority 2021, published 2025)
